Several values for one entry are separate records, joined by “and”; a condition that tells them apart may be missing. Identical values can stand only once. Like-named read-outs stand apart in the source and are kept apart here.
What was measured:
Details in all cases: COS-7 membranes
α1d-AR = biological target: T1, α1d-AR (Homo sapiens, UniProt P25100); assay: α1-Adrenergic Receptor Binding Assay, 125I-HEAT radio-ligand binding, transfected COS-7 cell membranes, α1d subtype
T1 construct: expressed in transfected cells; host or cells: COS-7 cells (African Green monkey kidney), membranes
T1 sequence (P25100 1-572): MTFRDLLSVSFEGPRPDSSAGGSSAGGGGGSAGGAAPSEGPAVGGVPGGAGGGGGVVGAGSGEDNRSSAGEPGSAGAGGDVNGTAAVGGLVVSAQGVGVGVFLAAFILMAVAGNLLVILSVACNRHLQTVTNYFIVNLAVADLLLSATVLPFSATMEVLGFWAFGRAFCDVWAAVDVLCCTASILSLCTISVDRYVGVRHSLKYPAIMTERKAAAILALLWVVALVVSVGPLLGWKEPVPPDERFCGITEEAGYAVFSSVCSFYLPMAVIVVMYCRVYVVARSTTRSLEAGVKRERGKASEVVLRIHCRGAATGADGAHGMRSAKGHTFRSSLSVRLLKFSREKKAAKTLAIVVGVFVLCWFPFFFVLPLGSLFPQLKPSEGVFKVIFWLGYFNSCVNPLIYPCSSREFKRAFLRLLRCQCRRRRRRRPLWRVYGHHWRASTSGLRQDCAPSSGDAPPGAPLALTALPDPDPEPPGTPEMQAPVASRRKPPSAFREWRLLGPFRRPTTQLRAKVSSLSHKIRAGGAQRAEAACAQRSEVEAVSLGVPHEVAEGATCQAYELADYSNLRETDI
Description: (§1) Membranes were prepared from COS-7 cells (African Green monkey kidney SV40-transformed cells) that had been transfected with one of the three α1-AR subtypes by the following method: COS cells from ten 100 mm tissue culture plates were scraped into a 5 ml volume of TE (a mixture of 50 mM tris(hydroxymethyl)aminomethane hydrochloride (Tris-HCl) and 5 mM ethylenediaminetetraacetic acid (EDTA) at pH 7.4). The cell suspension was disrupted with a Brinkman Polytron (at a setting of 8) for 10 sec. The disrupted cells were centrifuged at 1000×g for 10 min at 4° C. Supernatants were centrifuged at 34,500×g for 20 min at 4° C. The membrane pellets were suspended in a 2 ml volume of TNE (a mixture of 50 mM Tris-HCl, 5 mM EDTA and 150 mM NaCl at pH7.4). An aliquot of the membrane suspension was stored at −70° C. until use. The protein concentration was determined using a BioRad “DC” protein assay kit following membrane solubilization with Triton X-100.
(§2) Triplicate determinations of radio-ligand binding in the presence of increasing concentrations of testing compound were made. The reagents were added to 96-well polypropylene plate wells. Each assay well contained 140 μL TNE, 25 μL 125′-2-(β-4-hydroxyphenyl)ethylaminomethyltetralone (^125I-HEAT) (specific activity 2200 Ci/mmol, Dupont-New England Nuclear, […] final), 10 μL testing compound dissolved in dimethyl sulfoxide (DMSO) ([…] to 10 μM in half-log increments, final), and 25 μL appropriate α1-AR membrane subtype suspension in TNE (0.5 ng/μL for the α1a and α1b subtypes and 13 ng/μL for the α1d subtype). The plate was incubated at rt for 1 hr. The contents of the wells were filtered through a glass filter (type C) (GF/C) membrane Unifilter plate (Packard Instruments) using the Packard Filtermate cell harvester. The filter plates were dried in a vacuum oven for 30 min at 40° C. 25 μL Microscint 20 liquid scintillation fluid (Packard Instuments) was added to each well. The radioactive content was analyzed in the TopCount microplate scintillation counter (Packard Instruments).
(§3) The Ki values (in nM) shown in Table 1 were determined using GraphPad Prism software.

α1b-AR = biological target: T2, α1b-AR (Homo sapiens, UniProt P35368); assay: α1-Adrenergic Receptor Binding Assay, 125I-HEAT radio-ligand binding, transfected COS-7 cell membranes, α1b subtype
T2 construct: expressed in transfected cells; host or cells: COS-7 cells (African Green monkey kidney), membranes
T2 sequence (P35368 1-520): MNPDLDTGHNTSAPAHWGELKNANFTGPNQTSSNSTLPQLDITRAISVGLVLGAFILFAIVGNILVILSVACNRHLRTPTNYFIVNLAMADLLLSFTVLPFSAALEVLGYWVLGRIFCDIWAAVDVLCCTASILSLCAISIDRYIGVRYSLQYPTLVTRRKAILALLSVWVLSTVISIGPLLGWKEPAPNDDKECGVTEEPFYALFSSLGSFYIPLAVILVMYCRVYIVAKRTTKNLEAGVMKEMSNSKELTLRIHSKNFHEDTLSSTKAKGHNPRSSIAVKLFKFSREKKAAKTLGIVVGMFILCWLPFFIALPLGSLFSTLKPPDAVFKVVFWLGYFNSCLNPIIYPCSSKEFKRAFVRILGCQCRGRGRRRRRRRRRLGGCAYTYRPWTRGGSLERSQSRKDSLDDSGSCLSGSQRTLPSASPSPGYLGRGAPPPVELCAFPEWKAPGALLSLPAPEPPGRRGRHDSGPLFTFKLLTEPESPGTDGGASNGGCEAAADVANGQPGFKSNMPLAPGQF
Description: as §1, §2, §3

α1a-AR = biological target: T3, α1a-AR (Homo sapiens, UniProt P35348); assay: α1-Adrenergic Receptor Binding Assay, 125I-HEAT radio-ligand binding, transfected COS-7 cell membranes, α1a subtype
T3 construct: expressed in transfected cells; host or cells: COS-7 cells (African Green monkey kidney), membranes
T3 sequence (P35348 1-466): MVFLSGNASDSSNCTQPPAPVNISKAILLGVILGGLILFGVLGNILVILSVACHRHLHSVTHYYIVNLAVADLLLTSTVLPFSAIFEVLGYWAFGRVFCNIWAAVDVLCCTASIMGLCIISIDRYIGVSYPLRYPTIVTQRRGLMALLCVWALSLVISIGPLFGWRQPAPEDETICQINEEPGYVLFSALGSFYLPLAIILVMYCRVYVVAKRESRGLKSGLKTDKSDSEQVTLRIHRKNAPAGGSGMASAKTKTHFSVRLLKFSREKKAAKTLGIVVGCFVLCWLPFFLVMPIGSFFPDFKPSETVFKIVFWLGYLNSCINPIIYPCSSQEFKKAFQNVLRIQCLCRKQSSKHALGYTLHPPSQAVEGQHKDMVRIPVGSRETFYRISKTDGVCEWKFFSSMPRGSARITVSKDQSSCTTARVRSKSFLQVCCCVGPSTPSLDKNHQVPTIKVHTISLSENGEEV
Description: as §1, §2, §3

[1] = average value, read-out: Alpha 1 Ki α1d (1) Average Value
[2] = individual values, read-out: Alpha 1 Ki α1d (2) Individual Values
[3] = average value, read-out: Alpha 1 Ki α1b (1) Average Value
[4] = individual values, read-out: Alpha 1 Ki α1b (2) Individual Values
[5] = average value, read-out: Alpha 1 Ki α1a (1) Average Value
[6] = individual values, read-out: Alpha 1 Ki α1a (2) Individual Values

Ki (α1d-AR; [1])	Ki (α1d-AR; [2])	Ki (α1b-AR; [3])	Ki (α1b-AR; [4])	Ki (α1a-AR; [5])	Ki (α1a-AR; [6])	Structure (SMILES)
0.44 nM	0.44 nM	289 nM	289 nM	5.87 nM	5.87 nM	CC(C)Oc1ccccc1N1CCN(CC2CC(C(=O)N3CC(C)(C)c4cc(Br)ccc43)=NO2)CC1 (single isomer, unassigned) [Compound 42, (5-bromo-3,3-dimethyl-2,3-dihydro-indol-1-yl)-{(5R*)-5-[4-(2-isopropoxy-phenyl)-piperazin-1-ylmethyl]-4,5-dihydro-isoxazol-3-yl}-methanone]
20 nM	20 nM	254 nM	254 nM	19 nM	19 nM	COc1ccccc1C1CCN(C(=O)C2=NOC(CN3CCN(c4ccccc4OC(C)C)CC3)C2)CC1 (stereo not drawn) [Compound 33, {5-[4-(2-isopropoxy-phenyl)-piperazin-1-ylmethyl]-4,5-dihydro-isoxazol-3-yl}-[4-(2-methoxy-phenyl)-piperidin-1-yl]-methanone]
55 nM	55 nM	639 nM	639 nM	132 nM	132 nM	CC(C)Oc1ccccc1N1CCN(CC2CC(C(=O)N3CCC(Oc4ccccc4)CC3)=NO2)CC1 (single isomer, unassigned) [Compound 38, {(5R*)-5-[4-(2-isopropoxy-phenyl)-piperazin-1-ylmethyl]-4,5-dihydro-isoxazol-3-yl}-(4-phenoxy-piperidin-1-yl)-methanone]
0.28 nM	0.28 nM	37 nM	37 nM	0.54 nM	0.54 nM	CC(C)Oc1ccccc1N1CCN(CC2CC(C(=O)N3CCc4ccccc43)=NO2)CC1 (single isomer, unassigned) [Compound 37, (2,3-dihydro-indol-1-yl)-{(5R*)-5-[4-(2-isopropoxy-phenyl)-piperazin-1-ylmethyl]-4,5-dihydro-isoxazol-3-yl}-methanone]
4.7 nM	4.7 nM	133 nM	133 nM	8.3 nM	8.3 nM	CC(C)Oc1ccccc1N1CCN(CC2CC(C(=O)N3CCc4cc(Cl)ccc43)=NO2)CC1 (stereo not drawn) [Compound 16, (5-chloro-2,3-dihydro-indol-1-yl)-{5-[4-(2-isopropoxy-phenyl)-piperazin-1-ylmethyl]-4,5-dihydro-isoxazol-3-yl}-methanone]
9.4 nM	9.4 nM	172 nM	172 nM	6.4 nM	6.4 nM	CC(C)Oc1ccccc1N1CCN(CC2CC(CN3CCc4ccc(NCc5c(F)cccc5F)cc43)=NO2)CC1 (stereo not drawn) [Compound 7, (2,6-difluoro-benzyl)-(1-{5-[4-(2-isopropoxy-phenyl)-piperazin-1-ylmethyl]-4,5-dihydro-isoxazol-3-ylmethyl}-2,3-dihydro-1H-indol-6-yl)-amine]
9 nM	11 nM and 7 nM	212 nM	183 nM and 242 nM	3.65 nM	1.6 nM and 5.7 nM	CC(C)Oc1ccccc1N1CCN(CC2CC(C(=O)N3CCCC3)=NO2)CC1 (stereo not drawn) [Compound 35, {5-[4-(2-isopropoxy-phenyl)-piperazin-1-ylmethyl]-4,5-dihydro-isoxazol-3-yl}-pyrrolidin-1-yl-methanone]
6.5 nM	6.5 nM	219 nM	219 nM	11.6 nM	11.6 nM	CC(C)Oc1ccccc1N1CCN(CC2CC(C(=O)N3CCC(Cc4ccccc4)CC3)=NO2)CC1 (stereo not drawn) [Compound 27, (4-benzyl-piperidin-1-yl)-{5-[4-(2-isopropoxy-phenyl)-piperazin-1-ylmethyl]-4,5-dihydro-isoxazol-3-yl}-methanone]
11 nM	11 nM	258 nM	258 nM	6.7 nM	6.7 nM	CC(C)Oc1ccccc1N1CCN(CC2CC(C(=O)N3CCCc4ccccc43)=NO2)CC1 (stereo not drawn) [Compound 26, (3,4-dihydro-2H-quinolin-1-yl)-{5-[4-(2-isopropoxy-phenyl)-piperazin-1-ylmethyl]-4,5-dihydro-isoxazol-3-yl}-methanone]
27 nM	27 nM	255 nM	255 nM	40 nM	40 nM	CC(C)Oc1ccccc1N1CCN(CC2CC(C(=O)N3CCC(Oc4ccc(Cl)cc4)CC3)=NO2)CC1 (stereo not drawn) [Compound 34, [4-(4-chloro-phenoxy)-piperidin-1-yl]-{5-[4-(2-isopropoxy-phenyl)-piperazin-1-ylmethyl]-4,5-dihydro-isoxazol-3-yl}-methanone]
35 nM	35 nM	304 nM	304 nM	6.9 nM	6.9 nM	CC(C)Oc1ccccc1N1CCN(CC2CC(CN3CCc4ccc(NCc5ccccc5F)cc43)=NO2)CC1 (stereo not drawn) [Compound 8, (2-fluoro-benzyl)-(1-{5-[4-(2-isopropoxy-phenyl)-piperazin-1-ylmethyl]-4,5-dihydro-isoxazol-3-ylmethyl}-2,3-dihydro-1H-indol-6-yl)-amine]
21.5 nM	22 nM and 21 nM	423 nM	423 nM	7.9 nM	9.9 nM and 5.9 nM	CC(C)Oc1ccccc1N1CCN(CC2CC(C(=O)N3CCC(C(=O)c4ccc(F)cc4)CC3)=NO2)CC1 (stereo not drawn) [Compound 18, [4-(4-fluoro-benzoyl)-piperidin-1-yl]-{5-[4-(2-isopropoxy-phenyl)-piperazin-1-ylmethyl]-4,5-dihydro-isoxazol-3-yl}-methanone]
44.6 nM	44.6 nM	264 nM	264 nM	41.7 nM	41.7 nM	CC(C)Oc1ccccc1N1CCN(CC2CC(C(=O)N3CCC(Oc4ccccn4)CC3)=NO2)CC1 (stereo not drawn) [Compound 32, {5-[4-(2-isopropoxy-phenyl)-piperazin-1-ylmethyl]-4,5-dihydro-isoxazol-3-yl}-[4-(pyridin-2-yloxy)-piperidin-1-yl]-methanone]

Reference: patent US20080221116A1, “ISOXAZOLINE ALPHA 1a/1d ADRENORECEPTOR ANTAGONISTS” (priority 2006, published 2008)
